Data reported in ChEMBL document CHEMBL1127255, “Synthesis of the benzofuran analogue of ILV, a new protein kinase C (PKC) activator” (Bioorg Med Chem Lett, 1994).

Biological target: Protein kinase C alpha type (Homo sapiens, UniProt P17252)
Experiment: Displacement of [3H]PDBu from PKC alpha expressed in Sf9 cells

Compound	Ki [nM]
CC(C)[C@H]1C(=O)N[C@H](CO)Cc2c[nH]c3cccc(c23)N1C [INDOLACTUM]	11
CC(C)[C@H]1C(=O)N[C@H](CO)Cc2coc3cccc(c23)N1C	17.3
